Experimental data from PubChem BioAssay (NCI).
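Compound exposure: 48 hours, 5 concentrations, 96-well plates. TGI: total growth inhibition.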

Assays:
Assay in all cases: NCI tumour cell line growth inhibition, 48 h
[1] = test system: U251 CNS
[2] = test system: ACHN renal
[3] = test system: A498 renal
[4] = test system: SK-MEL-5 melanoma
[5] = test system: PC-3 prostate
[6] = test system: MOLT-4 leukemia
[7] = test system: OVCAR-5 ovarian
[8] = test system: HCT-116 colon
[9] = test system: SK-MEL-28 melanoma
[10] = test system: NCI/ADR-RES ovarian
[11] = test system: SR leukemia
[12] = test system: OVCAR-4 ovarian
[13] = test system: NCI-H522 lung
[14] = test system: SF-295 CNS
[15] = test system: MALME-3M melanoma
[16] = test system: KM12 colon
[17] = test system: HCT-15 colon
[18] = test system: HOP-92 NSCLC
[19] = test system: HOP-62 NSCLC
[20] = test system: UACC-62 melanoma
[21] = test system: K-562 leukemia
[22] = test system: SK-OV-3 ovarian
[23] = test system: CCRF-CEM leukemia
[24] = test system: OVCAR-3 ovarian
[25] = test system: BT-549 breast
[26] = test system: HCC-2998 colon
[27] = test system: DU-145 prostate
[28] = test system: MDA-MB-231 breast
[29] = test system: MCF7 breast
[30] = test system: HT29 colon
[31] = test system: SN12C renal
[32] = test system: T-47D breast
[33] = test system: M14 melanoma
[34] = test system: UO-31 renal
[35] = test system: TK-10 renal
[36] = test system: SK-MEL-2 melanoma
[37] = test system: CAKI-1 renal
[38] = test system: 786-0 renal
[39] = test system: SW-620 colon
[40] = test system: MDA-MB-435
[41] = test system: COLO 205 colon
[42] = test system: RXF 393 renal
[43] = test system: NCI-H226 lung
[44] = test system: OVCAR-8 ovarian
[45] = test system: SF-268 CNS
[46] = test system: MDA-N
[47] = test system: IGROV1 ovarian
[48] = test system: UACC-257 melanoma
[49] = test system: HS 578T breast
[50] = test system: NCI-H460 lung
[51] = test system: RPMI-8226 leukemia
[52] = test system: SNB-75 CNS
[53] = test system: NCI-H23 lung
[54] = test system: A549 NSCLC
[55] = test system: SF-539 CNS
[56] = test system: HL-60(TB) leukemia
[57] = test system: SNB-19 CNS
[58] = test system: LOX IMVI melanoma

`COc1ccc(C2CC(c3ccc4ccccc4c3O)=NN2C(C)=O)cc1OC` (stereo unspecified) showed a TGI [1] greater than 100 µM, a TGI [2] greater than 100 µM and a TGI [3] greater than 100 µM. For the same compound, the TGI [4] was greater than 100 µM, the TGI [5] was greater than 100 µM and the TGI [6] was greater than 100 µM. It also gave a TGI [7] greater than 100 µM, a TGI [8] greater than 100 µM and a TGI [9] greater than 100 µM. It also gave a TGI [10] greater than 100 µM, a TGI [11] greater than 100 µM and a TGI [12] greater than 100 µM. For the same compound, the TGI [13] was greater than 100 µM, the TGI [14] was greater than 100 µM and the TGI [15] was greater than 100 µM. The TGI [16] was greater than 100 µM, the TGI [17] was greater than 100 µM and the TGI [18] was greater than 100 µM. For the same compound, the TGI [19] was greater than 100 µM, the TGI [20] was greater than 100 µM and the TGI [21] was greater than 100 µM. For the same compound, the TGI [22] was greater than 100 µM, the TGI [23] was greater than 100 µM and the TGI [24] was greater than 100 µM. For the same compound, the TGI [25] was greater than 100 µM, the TGI [26] was greater than 100 µM and the TGI [27] was greater than 100 µM. For the same compound, the TGI [28] was greater than 100 µM, the TGI [29] was greater than 100 µM and the TGI [30] was greater than 100 µM. It also gave a TGI [31] greater than 100 µM, a TGI [32] greater than 100 µM and a TGI [33] greater than 100 µM. It also gave a TGI [34] greater than 100 µM, a TGI [35] greater than 100 µM and a TGI [36] greater than 100 µM. It also gave a TGI [37] greater than 100 µM, a TGI [38] greater than 100 µM and a TGI [39] greater than 100 µM. It also gave a TGI [40] greater than 100 µM, a TGI [41] greater than 100 µM and a TGI [42] greater than 100 µM. It also gave a TGI [43] greater than 100 µM, a TGI [44] greater than 100 µM and a TGI [45] greater than 100 µM. For the same compound, the TGI [46] was greater than 100 µM, the TGI [47] was greater than 100 µM and the TGI [48] was greater than 100 µM. The TGI [49] was greater than 100 µM, the TGI [50] was greater than 100 µM and the TGI [51] was greater than 100 µM. For the same compound, the TGI [52] was greater than 100 µM, the TGI [53] was greater than 100 µM and the TGI [54] was greater than 100 µM. It also gave a TGI [55] greater than 100 µM.

Work on `CCCCCCCCCCCCCCCCOCC(COP(=O)([O-])OCC[n+]1ccc(N(C)C)cc1)OCC` (stereo unspecified) yielded a TGI [1] of 25.6 µM, a TGI [2] of 30.9 µM and a TGI [4] of 31.6 µM. For the same compound, the TGI [6] was 18.4 µM, the TGI [8] was 24.5 µM and the TGI [9] was 32.4 µM. It also gave a TGI [11] of 23.9 µM, a TGI [12] of 29.3 µM and a TGI [13] of 29.2 µM. It also gave a TGI [14] of 30.2 µM, a TGI [56] of 3.79 µM and a TGI [15] of 33 µM. It also gave a TGI [16] of 3.86 µM, a TGI [57] of 14.4 µM and a TGI [17] of 32.5 µM. It also gave a TGI [18] of 32.6 µM, a TGI [19] of 26.3 µM and a TGI [20] of 29 µM. For the same compound, the TGI [21] was 36.6 µM, the TGI [23] was 24.9 µM and the TGI [24] was 24.8 µM. For the same compound, the TGI [25] was 20.2 µM, the TGI [26] was 27.6 µM and the TGI [27] was 30.1 µM. The TGI [28] was 22.5 µM, the TGI [29] was 36.1 µM and the TGI [30] was 28 µM. The TGI [31] was 34.6 µM, the TGI [32] was 37.3 µM and the TGI [33] was 26.7 µM. It also gave a TGI [34] of 29.4 µM, a TGI [35] of 28.9 µM and a TGI [36] of 27 µM. For the same compound, the TGI [58] was 25.5 µM, the TGI [38] was 34.2 µM and the TGI [39] was 37.2 µM. For the same compound, the TGI [40] was 31.6 µM, the TGI [41] was 26.5 µM and the TGI [42] was 31.7 µM. For the same compound, the TGI [43] was 33.7 µM, the TGI [44] was 38.2 µM and the TGI [45] was 25.7 µM. For the same compound, the TGI [46] was 30.8 µM, the TGI [47] was 33.8 µM and the TGI [49] was 31.8 µM. It also gave a TGI [50] of 25.4 µM, a TGI [51] of 17.1 µM and a TGI [52] of 18.8 µM. The TGI [53] was 35.9 µM, the TGI [54] was 30.4 µM and the TGI [55] was 26.3 µM.
